13 compounds from US5169860A, “Antitumor compositions and methods of treatment” (Eli Lilly and Company, priority 1992, dated 1992) can be followed below.

Structures are written as SMILES.

One data set has as its system 6C3HED lymphosarcoma. Briefly: animal or person. Particulars: Mus musculus, 6C3HED, 120 h; 10 mg/kg, oral gavage, daily for 10 days; tumor measured five days after treatment ended; read-out: Percent Inhibition of tumor growth. The data set is classed as in vivo, C3H mice. The procedure: The compounds were tested in C3H mice bearing a 6C3HED lymphosarcoma, also known as the Gardner lymphosarcoma (GLS). The 6C3HED lymphosarcoma was obtained from the Division of Cancer Treatment, National Cancer Institute, Tumor Bank, maintained at E. G. and G. Mason Research (Worcester, Massachusetts).
First passage tumor was stored in liquid nitrogen using standard techniques. The transplanted tumor was reestablished from the Tumor Bank every six months or as needed. The tumor was maintained by serial passage twice weekly in C3H mice.
In the procedures utilized here, the tumor was removed from passage animals and minced into 1- to 3-mm cubic fragments using sterile techniques. Tumor pieces were checked for sterility using both Antibiotic Medium 1 and Brain Heart Infusion (Difco, Detroit, Michigan). The tumor pieces were implanted into the recipient C3H mice subcutaneously in an auxillary site by trochar.
Drug therapy on the appropriate schedule was initiated seven days after tumor implantation. The compound being tested was mixed with 2.5% Emulphor EL620 from GAF Corporation (1:40 dilution in 0.9% saline). The total dosage volume for each administration was 0.5 mL. All animals were weighed at the beginning and end of administration of the subject compounds. Food and water were provided ad libitum
Each control group and each dosage level of the treated groups generally consisted of 10 mice selected at random from the pool of implanted animals. The formulations were administered orally by gavage with the use of an 18-gauge needle. Compounds were dosed daily for 10 days.
The tumor was measured five days after treatment ended with two dimensional measurements (width and length) of the tumor taken using digital electronic calipers interfaced to a microcomputer. J. F. Worzalla, et al.. Investicational New Drugs. 8:241-251 (1990). Tumor weights were calculated from these measurements using the following formula:
Tumor weight (mg)=[tumor length (mm)×[tumor width (mm)]2].div.2
At least one control group of an equal number of mice was treated with the same volume of 2.5% Emulphor only. The percent inhibition was determined by subtracting the ratio of the mean tumor size of the test group relative to the control group from one and multiplying the result by 100.
The results of several experiments in mice bearing the 6C3HED lymphosarcoma when the instant compounds were administered orally are provided in the following table. In this table, column 1 gives the example number of the compound of Formula I administered; column 2 gives the dosage level of the compound in milligrams per kilogram of body weight; column 3 describes the percent inhibition of tumor growth; and column 4 tallies the number of mice which died during the course of the experiment relative to the total number of animals in the group.
Take `O=C(Nc1ccc(Cl)cc1)NS(=O)(=O)c1ccc2occc2c1` [Example 6, N-[[(4-chlorophenyl)amino]carbonyl]-5-benzofuransulfonamide hemihydrate]: the inhibition in vivo at 10 mg/kg came to 0%.

Still in this data set, the particulars now being: Mus musculus, 6C3HED, 120 h; 20 mg/kg, oral gavage, daily for 10 days; tumor measured five days after treatment ended; read-out: Percent Inhibition of tumor growth.
For `O=C(Nc1ccc(Cl)cc1)NS(=O)(=O)c1ccc2occc2c1` [Example 6, N-[[(4-chlorophenyl)amino]carbonyl]-5-benzofuransulfonamide hemihydrate], the inhibition in vivo at 20 mg/kg is 7%.

With `O=C(Nc1ccc(Cl)cc1)NS(=O)(=O)c1ccc2ccoc2c1` [Example 8, N-[[(4-chlorophenyl)amino]carbonyl]-6-benzofuransulfonamide], the inhibition in vivo at 20 mg/kg was 45%.

Still in this data set, the particulars now being: Mus musculus, 6C3HED, 120 h; 40 mg/kg, oral gavage, daily for 10 days; tumor measured five days after treatment ended; read-out: Percent Inhibition of tumor growth.
Regarding `O=C(Nc1ccc(Cl)cc1)NS(=O)(=O)c1ccc2occc2c1` [Example 6, N-[[(4-chlorophenyl)amino]carbonyl]-5-benzofuransulfonamide hemihydrate], the inhibition in vivo at 40 mg/kg is 53%.

Regarding `O=C(Nc1ccc(Cl)cc1)NS(=O)(=O)c1ccc2ccoc2c1` [Example 8, N-[[(4-chlorophenyl)amino]carbonyl]-6-benzofuransulfonamide], the inhibition in vivo at 40 mg/kg is 45%.

On to `O=C(Nc1ccc(Cl)cc1)NS(=O)(=O)c1ccc2sccc2c1` [Example 13, N-[[(4-chlorophenyl)amino]carbonyl]benzo[B]thiophene-5-sulfonamide], for which the inhibition in vivo at 40 mg/kg came out at 8%.

The data set is the same for the next values; noted with them: Mus musculus, 6C3HED, 120 h; 80 mg/kg, oral gavage, daily for 10 days; tumor measured five days after treatment ended; read-out: Percent Inhibition of tumor growth.
For `O=C(Nc1ccc(Cl)cc1)NS(=O)(=O)c1ccc2occc2c1` [Example 6, N-[[(4-chlorophenyl)amino]carbonyl]-5-benzofuransulfonamide hemihydrate], the inhibition in vivo at 80 mg/kg was 96%.

Regarding `O=C(Nc1ccc(Cl)cc1)NS(=O)(=O)c1ccc2ccoc2c1` [Example 8, N-[[(4-chlorophenyl)amino]carbonyl]-6-benzofuransulfonamide], the inhibition in vivo at 80 mg/kg amounted to 93%.

As to `O=C(Nc1ccc(Cl)cc1)NS(=O)(=O)c1ccc2sccc2c1` [Example 13, N-[[(4-chlorophenyl)amino]carbonyl]benzo[B]thiophene-5-sulfonamide], the inhibition in vivo at 80 mg/kg came to 44%.

Still in this data set, the particulars now being: Mus musculus, 6C3HED, 120 h; 150 mg/kg, oral gavage, daily for 10 days; tumor measured five days after treatment ended; read-out: Percent Inhibition of tumor growth.
Turning to `O=C(Nc1ccc(Cl)cc1)NS(=O)(=O)c1ccc2cc[nH]c2c1` [Example 10, N-[[(4-chlorophenyl)amino]carbonyl]-lH-indole-6-sulfonamide], the inhibition in vivo at 150 mg/kg is 37%.

As for `O=C(Nc1ccc(Cl)cc1)NS(=O)(=O)c1ccc2occc2c1` [Example 6, N-[[(4-chlorophenyl)amino]carbonyl]-5-benzofuransulfonamide hemihydrate], the inhibition in vivo at 150 mg/kg stood at 100%.

Regarding `O=C(Nc1ccc(Cl)cc1)NS(=O)(=O)c1cc2ccccc2s1` [Example 11, N-[[(4-chlorophenyl)amino]carbonyl]benzo[B]thiophene-2-sulfonamide], the inhibition in vivo at 150 mg/kg stood at 47%.

Take `O=C(Nc1ccc(Cl)c(Cl)c1)NS(=O)(=O)c1cc2ccccc2o1` [Example 3, N-[[(3,4 dichlorophenyl)amino]carbonyl]-2-benzofuransulfonamide]: the inhibition in vivo at 150 mg/kg stood at 28%.

Take `O=C(Nc1ccc(Cl)cc1)NS(=O)(=O)c1cc2ccccc2o1` [Example 1, N-[[(4-chlorophenyl)amino]carbonyl]-2-benzofuransulfonamide]: the inhibition in vivo at 150 mg/kg was 84%.

Regarding `O=C(Nc1ccc(Cl)cc1)NS(=O)(=O)c1cc2ccccc2[nH]1` [Example 9, N-[[(4-chlorophenyl)amino]carbonyl]-lH-indole-2-sulfonamide], the inhibition in vivo at 150 mg/kg turned out to be 26%.

Consider `O=C(Nc1ccc(Cl)cc1)NS(=O)(=O)c1cccc2occc12` [Example 5, N-[[(4-chlorophenyl)amino]carbonyl]-4-benzofuransulfonamide], for which the inhibition in vivo at 150 mg/kg amounted to 84%.

In the case of `Cc1ccc(NC(=O)NS(=O)(=O)c2cc3ccccc3o2)cc1` [Example 2, N-[[(4-methylphenyl)amino]carbonyl]-2-benzofuransulfonamide], the inhibition in vivo at 150 mg/kg is 11%.

In the case of `O=C(Nc1ccc(Br)cc1)NS(=O)(=O)c1cc2ccccc2o1` [Example 4, N-[[(4-bromophenyl)amino]carbonyl]-2-benzofuransulfonamide], the inhibition in vivo at 150 mg/kg was 48%.

As for `O=C(Nc1ccc(Cl)cc1)NS(=O)(=O)c1csc2ccccc12` [Example 12, N-[[(4-chlorophenyl)amino]carbonyl]benzo[B]thiophene-3-sulfonamide], the inhibition in vivo at 150 mg/kg stood at 43%.

`Cc1ccc(NC(=O)NS(=O)(=O)c2ccc3occc3c2)cc1` [Example 7, N-[[(4-methylphenyl)amino]carbonyl]-5-benzofuransulfonamide]: the inhibition in vivo at 150 mg/kg came to 84%.

Still in this data set, the particulars now being: Mus musculus, 6C3HED, 120 h; 160 mg/kg, oral gavage, daily for 10 days; tumor measured five days after treatment ended; read-out: Percent Inhibition of tumor growth.
With `O=C(Nc1ccc(Cl)cc1)NS(=O)(=O)c1ccc2ccoc2c1` [Example 8, N-[[(4-chlorophenyl)amino]carbonyl]-6-benzofuransulfonamide], the inhibition in vivo at 160 mg/kg stood at 100%.

Staying with this data set, now noted: Mus musculus, 6C3HED, 120 h; 300 mg/kg, oral gavage, daily for 10 days; tumor measured five days after treatment ended; read-out: Percent Inhibition of tumor growth.
Take `O=C(Nc1ccc(Cl)cc1)NS(=O)(=O)c1ccc2cc[nH]c2c1` [Example 10, N-[[(4-chlorophenyl)amino]carbonyl]-lH-indole-6-sulfonamide]: the inhibition in vivo at 300 mg/kg was 80%.

`O=C(Nc1ccc(Cl)cc1)NS(=O)(=O)c1cc2ccccc2s1` [Example 11, N-[[(4-chlorophenyl)amino]carbonyl]benzo[B]thiophene-2-sulfonamide]: the inhibition in vivo at 300 mg/kg is 66%.

As to `O=C(Nc1ccc(Cl)c(Cl)c1)NS(=O)(=O)c1cc2ccccc2o1` [Example 3, N-[[(3,4 dichlorophenyl)amino]carbonyl]-2-benzofuransulfonamide], the inhibition in vivo at 300 mg/kg amounted to 28%.

Take `O=C(Nc1ccc(Cl)cc1)NS(=O)(=O)c1cc2ccccc2[nH]1` [Example 9, N-[[(4-chlorophenyl)amino]carbonyl]-lH-indole-2-sulfonamide]: the inhibition in vivo at 300 mg/kg is 57%.

In the case of `O=C(Nc1ccc(Cl)cc1)NS(=O)(=O)c1cccc2occc12` [Example 5, N-[[(4-chlorophenyl)amino]carbonyl]-4-benzofuransulfonamide], the inhibition in vivo at 300 mg/kg was 100%.

Turning to `Cc1ccc(NC(=O)NS(=O)(=O)c2cc3ccccc3o2)cc1` [Example 2, N-[[(4-methylphenyl)amino]carbonyl]-2-benzofuransulfonamide], the inhibition in vivo at 300 mg/kg was found to be 37%.

As to `O=C(Nc1ccc(Cl)cc1)NS(=O)(=O)c1csc2ccccc12` [Example 12, N-[[(4-chlorophenyl)amino]carbonyl]benzo[B]thiophene-3-sulfonamide], the inhibition in vivo at 300 mg/kg is 69%.

For the compound `Cc1ccc(NC(=O)NS(=O)(=O)c2ccc3occc3c2)cc1` [Example 7, N-[[(4-methylphenyl)amino]carbonyl]-5-benzofuransulfonamide], the inhibition in vivo at 300 mg/kg stood at 100%.

The data set is the same for the next values; noted with them: Mus musculus, 6C3HED, 240 h; 40 mg/kg, second listing (groups of 8), oral gavage, daily for 10 days; read-out: Percent Inhibition of tumor growth.
As for `O=C(Nc1ccc(Cl)cc1)NS(=O)(=O)c1ccc2ccoc2c1` [Example 8, N-[[(4-chlorophenyl)amino]carbonyl]-6-benzofuransulfonamide], the inhibition in vivo at 40 mg/kg came out at 92%.

The same data set, now with this note: Mus musculus, 6C3HED, 240 h; 80 mg/kg, second listing (groups of 8), oral gavage, daily for 10 days; read-out: Percent Inhibition of tumor growth.
Turning to `O=C(Nc1ccc(Cl)cc1)NS(=O)(=O)c1ccc2ccoc2c1` [Example 8, N-[[(4-chlorophenyl)amino]carbonyl]-6-benzofuransulfonamide], the inhibition in vivo at 80 mg/kg was 98%.

The data set is the same for the next values; noted with them: mouse, in vivo.
Turning to `O=C(Nc1ccc(Cl)cc1)NS(=O)(=O)c1ccc2cc[nH]c2c1` [Example 10, N-[[(4-chlorophenyl)amino]carbonyl]-lH-indole-6-sulfonamide], the “Toxic/Total (mice which died relative to total number of animals in the group)” value is given as 0/10.

Regarding `O=C(Nc1ccc(Cl)cc1)NS(=O)(=O)c1cc2ccccc2o1` [Example 1, N-[[(4-chlorophenyl)amino]carbonyl]-2-benzofuransulfonamide], the “Toxic/Total (mice which died relative to total number of animals in the group)” value was 4/10.

In the case of `Cc1ccc(NC(=O)NS(=O)(=O)c2cc3ccccc3o2)cc1` [Example 2, N-[[(4-methylphenyl)amino]carbonyl]-2-benzofuransulfonamide], the “Toxic/Total (mice which died relative to total number of animals in the group)” value is 0/10.

Take `O=C(Nc1ccc(Br)cc1)NS(=O)(=O)c1cc2ccccc2o1` [Example 4, N-[[(4-bromophenyl)amino]carbonyl]-2-benzofuransulfonamide]: the “Toxic/Total (mice which died relative to total number of animals in the group)” value is recorded as 1/10.

As for `O=C(Nc1ccc(Cl)cc1)NS(=O)(=O)c1csc2ccccc12` [Example 12, N-[[(4-chlorophenyl)amino]carbonyl]benzo[B]thiophene-3-sulfonamide], the “Toxic/Total (mice which died relative to total number of animals in the group)” value is recorded as 0/10.

For the compound `O=C(Nc1ccc(Cl)cc1)NS(=O)(=O)c1ccc2sccc2c1` [Example 13, N-[[(4-chlorophenyl)amino]carbonyl]benzo[B]thiophene-5-sulfonamide], the “Toxic/Total (mice which died relative to total number of animals in the group)” value is recorded as 0/8.
